Data published in ChEMBL document CHEMBL6074659, “Development of an Intravenously Stable Disulfide-Rich Peptide for the Treatment of Chemotherapy-Induced Neuropathic Pain” (J Med Chem, 2024).
Active and inactive are the calls of the source. The rule behind the calls is not given here. Starred links: 1 amine or outer side, 2 acyl side, 3 side chain; linkers in the order of their positions; H or OH if unused. Positions of bridges follow the written chain, without caps; N, C: chain ends. Non-standard residues stand in square brackets, D forms with d. Residues, ends and D or L forms follow the SMILES beside them. Dap = NC[C@H](N)C(=O)O; CH2 = C([*:1])[*:2]

How the values were obtained:
[1] = biological target: T1, Neuronal acetylcholine receptor; alpha9/alpha10 (Homo sapiens) (UniProt Q9UGM1+Q9GZZ6); experiment: Antagonist activity at human alpha9alpha10 nAChR expressed in acetylcholine-induced Xenopus laevis oocytes assessed as inhibition of acetylcholine-induced current at 10 nM at -80 mV holding potential incubated for 5 mins by two electrode voltage-clamp assay; format: cell-based; details: Oocyte, filed as antagonist
[2] = biological target: T1, Neuronal acetylcholine receptor; alpha9/alpha10 (Homo sapiens); experiment: Antagonist activity at human alpha9alpha10 nAChR expressed in acetylcholine-induced Xenopus laevis oocytes assessed as inhibition of acetylcholine-induced current at 10 nM at -80 mV holding potential incubated for 5 mins by two electrode voltage-clamp assay relative to control; format: cell-based; details: Oocyte
[3] = Stability in human serum assessed as parent compound remaining incubated at 24 hrs by RP-HPLC analysis; format: ADME, cell-free; details: for remaining at 24 h: human serum, read-out: Stability
[4] = biological target: Neuronal acetylcholine receptor; alpha9/alpha10 (Homo sapiens, UniProt Q9GZZ6+Q9UGM1); experiment: Antagonist activity at human alpha9alpha10 nAChR expressed in acetylcholine-induced Xenopus laevis oocytes assessed as inhibition of acetylcholine-induced current at -80 mV holding potential incubated for 5 mins by two electrode voltage-clamp assay; format: cell-based, Oocyte
Sequence of Neuronal acetylcholine receptor; alpha9/alpha10 (Q9UGM1 whole entry): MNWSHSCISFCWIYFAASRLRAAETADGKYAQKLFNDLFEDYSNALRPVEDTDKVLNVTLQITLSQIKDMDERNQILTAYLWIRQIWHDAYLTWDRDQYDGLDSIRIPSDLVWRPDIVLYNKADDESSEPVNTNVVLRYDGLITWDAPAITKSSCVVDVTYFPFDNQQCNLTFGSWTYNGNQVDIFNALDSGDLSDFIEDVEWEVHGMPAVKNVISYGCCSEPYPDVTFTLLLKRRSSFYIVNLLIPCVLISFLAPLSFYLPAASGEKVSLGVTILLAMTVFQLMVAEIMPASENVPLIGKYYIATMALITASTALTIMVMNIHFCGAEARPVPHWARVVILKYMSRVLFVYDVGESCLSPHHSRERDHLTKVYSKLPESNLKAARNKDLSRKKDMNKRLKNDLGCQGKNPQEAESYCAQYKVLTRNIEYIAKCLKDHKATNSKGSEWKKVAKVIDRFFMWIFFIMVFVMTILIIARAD
Sequence of Neuronal acetylcholine receptor; alpha9/alpha10 (Q9GZZ6 whole entry): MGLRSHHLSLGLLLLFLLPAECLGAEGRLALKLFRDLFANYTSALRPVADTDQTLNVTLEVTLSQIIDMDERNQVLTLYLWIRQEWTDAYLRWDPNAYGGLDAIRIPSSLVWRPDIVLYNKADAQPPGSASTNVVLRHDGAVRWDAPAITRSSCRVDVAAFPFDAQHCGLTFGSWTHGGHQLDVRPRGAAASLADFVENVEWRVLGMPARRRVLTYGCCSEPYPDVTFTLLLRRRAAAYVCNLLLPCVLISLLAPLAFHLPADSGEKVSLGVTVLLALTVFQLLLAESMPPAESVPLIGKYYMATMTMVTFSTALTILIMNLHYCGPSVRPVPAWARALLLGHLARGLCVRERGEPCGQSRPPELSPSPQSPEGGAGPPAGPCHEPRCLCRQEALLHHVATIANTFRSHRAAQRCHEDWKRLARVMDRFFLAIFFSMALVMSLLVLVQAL

[5] = Stability in human serum assessed as parent compound remaining incubated measured upto 48 hrs by RP-HPLC analysis; format: ADME, cell-free
[6] = Antagonist activity at rat alpha9alpha10 nAChR expressed in acetylcholine-induced Xenopus laevis oocytes assessed as inhibition of acetylcholine-induced current at -80 mV holding potential incubated for 5 mins by two electrode voltage-clamp assay; format: cell-based; details: Oocyte
[7] = Stability in human serum assessed as parent compound remaining incubated at 48 hrs by RP-HPLC analysis; format: ADME, cell-free; details: read-out: Stability

Compound	Activity [1]	inhibition [2]	remaining at 24 h [3]	other results
CC[C@H](C)[C@@H]1NC(=O)[C@H](CC(=O)O)NC(=O)[C@@H]2CCCN2C(=O)[C@H](CC(N)=O)NC(=O)[C@H](CC(N)=O)NC(=O)[C@H](C(C)C)NC(=O)[C@H](CO)NC(=O)[C@@H]2CSCSC[C@H](NC(=O)CN)C(=O)N[C@@H](CSCSC[C@@H](C(N)=O)NC1=O)C(=O)N[C@@H](CN)C(=O)N[C@@H](Cc1cnc[nH]1)C(=O)N1CCC[C@H]1C(=O)N[C@@H](C)C(=O)N2 (H-GCC[Dap]HPACSVNNPDIC-NH2; linker 2-8, 3-16 via CH2)	Active	–	–	–
CC[C@H](C)[C@@H]1NC(=O)[C@H](CC(=O)O)NC(=O)[C@@H]2CCCN2C(=O)[C@H](CC(N)=O)NC(=O)[C@H](CC(N)=O)NC(=O)[C@H](C(C)C)NC(=O)[C@H](CO)NC(=O)[C@@H]2CSSC[C@@H]3NC(=O)CNC(=O)[C@H](CCC(=O)O)NC(=O)CNC(=O)[C@H](CCC(=O)O)NC(=O)CNC(=O)[C@H](CCC(=O)O)NC(=O)CNC(=O)[C@H](CSSC[C@H](NC3=O)C(=O)N[C@@H](CN)C(=O)N[C@@H](Cc3cnc[nH]3)C(=O)N3CCC[C@H]3C(=O)N[C@@H](C)C(=O)N2)NC1=O (HELM PEPTIDE1{A.C.S.V.N.N.P.D.I.C.G.E.G.E.G.E.G.C.C.[NC[C@H](N[*:1])C(=O)[*:2]].H.P}$PEPTIDE1,PEPTIDE1,2:R3-18:R3|PEPTIDE1,PEPTIDE1,10:R3-19:R3|PEPTIDE1,PEPTIDE1,1:R1-22:R2$$$V2.0)	–	20%	57.3%	–
CC[C@H](C)[C@@H]1NC(=O)[C@H](CC(=O)O)NC(=O)[C@@H]2CCCN2C(=O)[C@H](CC(N)=O)NC(=O)[C@H](CC(N)=O)NC(=O)[C@H](C(C)C)NC(=O)[C@H](CO)NC(=O)[C@@H]2CSSC[C@@H]3NC(=O)CNC(=O)[C@@H](N)CC(=O)NCC[C@@H](C(N)=O)NC(=O)[C@H](CSSC[C@H](NC3=O)C(=O)N[C@@H](CN)C(=O)N[C@@H](Cc3cnc[nH]3)C(=O)N3CCC[C@H]3C(=O)N[C@@H](C)C(=O)N2)NC1=O (HELM PEPTIDE1{D.G.C.C.[NC[C@H](N[*:1])C(=O)[*:2]].H.P.A.C.S.V.N.N.P.D.I.C.[Dab].[am]}$PEPTIDE1,PEPTIDE1,1:R3-18:R3|PEPTIDE1,PEPTIDE1,3:R3-9:R3|PEPTIDE1,PEPTIDE1,4:R3-17:R3$$$V2.0)	–	–	64.6%	inhibition ([2]; filed as antagonist): 90%; IC50 [4]: 3.3 nM; Stability [5]: Stable
CC[C@H](C)[C@@H]1NC(=O)[C@H](CC(=O)O)NC(=O)[C@@H]2CCCN2C(=O)[C@H](CC(N)=O)NC(=O)[C@H](CC(N)=O)NC(=O)[C@H](C(C)C)NC(=O)[C@H](CO)NC(=O)[C@@H]2CSSC[C@@H]3NC(=O)CNC(=O)[C@@H](N)CC(=O)NC[C@@H](C(N)=O)NC(=O)[C@H](CSSC[C@H](NC3=O)C(=O)N[C@@H](CN)C(=O)N[C@@H](Cc3cnc[nH]3)C(=O)N3CCC[C@H]3C(=O)N[C@@H](C)C(=O)N2)NC1=O (HELM PEPTIDE1{D.G.C.C.[NC[C@H](N[*:1])C(=O)[*:2]].H.P.A.C.S.V.N.N.P.D.I.C.[O=C([C@H](CN[*:3])N[*:1])[*:2]].[am]}$PEPTIDE1,PEPTIDE1,1:R3-18:R3|PEPTIDE1,PEPTIDE1,3:R3-9:R3|PEPTIDE1,PEPTIDE1,4:R3-17:R3$$$V2.0)	–	–	57.3%	inhibition ([2]; filed as antagonist): 90%; IC50 [4]: 3.2 nM; Stability ([3]; serum, 24 h): 72.4%; Stability [5]: Stable
CC[C@H](C)[C@@H]1NC(=O)[C@H](CC(=O)O)NC(=O)[C@@H]2CCCN2C(=O)[C@H](CC(N)=O)NC(=O)[C@H](CC(N)=O)NC(=O)[C@H](C(C)C)NC(=O)[C@H](CO)NC(=O)[C@@H]2CSCSC[C@H](NC(=O)CN)C(=O)N[C@@H](CSSC[C@@H](C(N)=O)NC1=O)C(=O)N[C@@H](CN)C(=O)N[C@@H](Cc1cnc[nH]1)C(=O)N1CCC[C@H]1C(=O)N[C@@H](C)C(=O)N2 (HELM PEPTIDE1{G.C.C.[NC[C@H](N[*:1])C(=O)[*:2]].H.P.A.C.S.V.N.N.P.D.I.C.[am]}|CHEM1{[C([*:1])[*:2]]}$PEPTIDE1,CHEM1,2:R3-1:R1|PEPTIDE1,CHEM1,8:R3-1:R2|PEPTIDE1,PEPTIDE1,3:R3-16:R3$$$V2.0)	Active	–	–	–
CC.CC[C@H](C)[C@@H]1NC(=O)[C@H](CC(=O)O)NC(=O)[C@@H]2CCCN2C(=O)[C@H](CC(N)=O)NC(=O)[C@H](CC(N)=O)NC(=O)[C@H](C(C)C)NC(=O)[C@H](CO)NC(=O)[C@@H]2CSSC[C@H](NC(=O)CN)C(=O)N[C@@H](CSCSC[C@@H](C(N)=O)NC1=O)C(=O)N[C@@H](CN)C(=O)N[C@@H](Cc1cnc[nH]1)C(=O)N1CCC[C@H]1C(=O)N[C@@H](C)C(=O)N2 (HELM PEPTIDE1{G.C.C.[NC[C@H](N[*:1])C(=O)[*:2]].H.P.A.C.S.V.N.N.P.D.I.C.[am]}|CHEM1{[C([*:1])[*:2]]}$PEPTIDE1,PEPTIDE1,2:R3-8:R3|PEPTIDE1,CHEM1,3:R3-1:R1|PEPTIDE1,CHEM1,16:R3-1:R2$$$V2.0)	Active	–	–	–
CC[C@H](C)[C@@H]1NC(=O)[C@H](CC(=O)O)NC(=O)[C@@H]2CCCN2C(=O)[C@H](CC(N)=O)NC(=O)[C@H](CC(N)=O)NC(=O)[C@H](C(C)C)NC(=O)[C@H](CO)NC(=O)[C@@H]2CSSC[C@H](NC(=O)CN)C(=O)N[C@@H](CNC(=O)C[C@@H](C(N)=O)NC1=O)C(=O)N[C@@H](CN)C(=O)N[C@@H](Cc1cnc[nH]1)C(=O)N1CCC[C@H]1C(=O)N[C@@H](C)C(=O)N2 (HELM PEPTIDE1{G.C.[O=C([C@H](CN[*:3])N[*:1])[*:2]].[NC[C@H](N[*:1])C(=O)[*:2]].H.P.A.C.S.V.N.N.P.D.I.D.[am]}$PEPTIDE1,PEPTIDE1,2:R3-8:R3|PEPTIDE1,PEPTIDE1,3:R3-16:R3$$$V2.0)	–	< 5%	57.3%	–
CC[C@H](C)[C@@H]1NC(=O)[C@H](CC(=O)O)NC(=O)[C@@H]2CCCN2C(=O)[C@H](CC(N)=O)NC(=O)[C@H](CC(N)=O)NC(=O)[C@H](C(C)C)NC(=O)[C@H](CO)NC(=O)[C@@H]2CSSC[C@H](NC(=O)CN)C(=O)N[C@H](C(=O)N[C@@H](CN)C(=O)N[C@@H](Cc3cnc[nH]3)C(=O)N3CCC[C@H]3C(=O)N[C@@H](C)C(=O)N2)C(C)(C)SSC[C@@H](C(N)=O)NC1=O (HELM PEPTIDE1{G.C.[Pen].[NC[C@H](N[*:1])C(=O)[*:2]].H.P.A.C.S.V.N.N.P.D.I.C.[am]}$PEPTIDE1,PEPTIDE1,2:R3-8:R3|PEPTIDE1,PEPTIDE1,3:R3-16:R3$$$V2.0)	–	–	80%	inhibition ([2]; filed as antagonist): 50%; IC50 [4]: 9.9 nM; IC50 [6]: 2.7 nM; remaining at 48 h [7]: 60%
CC[C@H](C)[C@@H]1NC(=O)[C@H](CC(=O)O)NC(=O)[C@@H]2CCCN2C(=O)[C@H](CC(N)=O)NC(=O)[C@H](CC(N)=O)NC(=O)[C@H](C(C)C)NC(=O)[C@H](CO)NC(=O)[C@@H]2CSSC[C@@H]3NC(=O)CNC(=O)[C@@H](N)CCCCNC(=O)CC[C@@H](C(N)=O)NC(=O)[C@H](CSSC[C@H](NC3=O)C(=O)N[C@@H](CN)C(=O)N[C@@H](Cc3cnc[nH]3)C(=O)N3CCC[C@H]3C(=O)N[C@@H](C)C(=O)N2)NC1=O (HELM PEPTIDE1{K.G.C.C.[NC[C@H](N[*:1])C(=O)[*:2]].H.P.A.C.S.V.N.N.P.D.I.C.E.[am]}$PEPTIDE1,PEPTIDE1,1:R3-18:R3|PEPTIDE1,PEPTIDE1,3:R3-9:R3|PEPTIDE1,PEPTIDE1,4:R3-17:R3$$$V2.0)	–	< 40%	57.3%	–
CC[C@H](C)[C@@H]1NC(=O)[C@H](CC(=O)O)NC(=O)[C@@H]2CCCN2C(=O)[C@H](CC(N)=O)NC(=O)[C@H](CC(N)=O)NC(=O)[C@H](C(C)C)NC(=O)[C@H](CO)NC(=O)[C@@H]2CSSC[C@@H]3NC(=O)CNC(=O)[C@@H](N)CNC(=O)C[C@@H](C(N)=O)NC(=O)[C@H](CSSC[C@H](NC3=O)C(=O)N[C@@H](CN)C(=O)N[C@@H](Cc3cnc[nH]3)C(=O)N3CCC[C@H]3C(=O)N[C@@H](C)C(=O)N2)NC1=O (HELM PEPTIDE1{[N[C@@H](CN[*:3])C(=O)[*:2]].G.C.C.[NC[C@H](N[*:1])C(=O)[*:2]].H.P.A.C.S.V.N.N.P.D.I.C.D.[am]}$PEPTIDE1,PEPTIDE1,1:R3-18:R3|PEPTIDE1,PEPTIDE1,3:R3-9:R3|PEPTIDE1,PEPTIDE1,4:R3-17:R3$$$V2.0)	–	< 5%	57.3%	–
CC[C@H](C)[C@@H]1NC(=O)[C@H](CC(=O)O)NC(=O)[C@@H]2CCCN2C(=O)[C@H](CC(N)=O)NC(=O)[C@H](CC(N)=O)NC(=O)[C@H](C(C)C)NC(=O)[C@H](CO)NC(=O)[C@@H]2CSSC[C@@H]3NC(=O)CNC(=O)[C@@H](N)CNC(=O)CC[C@@H](C(N)=O)NC(=O)[C@H](CSSC[C@H](NC3=O)C(=O)N[C@@H](CN)C(=O)N[C@@H](Cc3cnc[nH]3)C(=O)N3CCC[C@H]3C(=O)N[C@@H](C)C(=O)N2)NC1=O (HELM PEPTIDE1{[N[C@@H](CN[*:3])C(=O)[*:2]].G.C.C.[NC[C@H](N[*:1])C(=O)[*:2]].H.P.A.C.S.V.N.N.P.D.I.C.E.[am]}$PEPTIDE1,PEPTIDE1,1:R3-18:R3|PEPTIDE1,PEPTIDE1,3:R3-9:R3|PEPTIDE1,PEPTIDE1,4:R3-17:R3$$$V2.0)	–	< 5%	57.3%	–
CC[C@H](C)[C@@H]1NC(=O)[C@H](CC(=O)O)NC(=O)[C@@H]2CCCN2C(=O)[C@H](CC(N)=O)NC(=O)[C@H](CC(N)=O)NC(=O)[C@H](C(C)C)NC(=O)[C@H](CO)NC(=O)[C@@H]2CSSC[C@@H]3NC(=O)CNC(=O)[C@H](CN)NC(=O)CNC(=O)[C@H](CN)NC(=O)CNC(=O)[C@H](CN)NC(=O)CNC(=O)[C@H](CSSC[C@H](NC3=O)C(=O)N[C@@H](CN)C(=O)N[C@@H](Cc3cnc[nH]3)C(=O)N3CCC[C@H]3C(=O)N[C@@H](C)C(=O)N2)NC1=O (cyclo(ACSVNNPDICG[Dap]G[Dap]G[Dap]GCC[Dap]HP); disulfide 2-18, 10-19)	Active	–	85.2%	–
